3 substances from paper PMC9221509, “Discovery of a Novel Antimicrobial Peptide, Temporin-PKE, from the Skin Secretion of Pelophylax kl. esculentus, and Evaluation of Its Structure-Activity Relationships” (Biomolecules, 2022) can be followed below.

Like-named read-outs stand apart in the source and are kept apart here. No end group written: not given here.

The subject of assay [1] is E. faecalis (NCTC 12697) biofilm. In kind it is cell-based, Enterococcus faecalis. The settings on record: NCTC 12697, 24 h. As to the method:
The anti-biofilm activities of the peptides against S. aureus (ATCC 6538), MRSA (NCTC 12493), E. faecalis (NCTC 12697), E. coli (ATCC CRM 8739), K. pneumoniae (ATCC 43816), and P. aeruginosa (ATCC CRM 9027), were evaluated. For the MBIC assay, 99 µL of bacterial suspension (5 × 10^5 CFU/mL) was mixed with 1 µL of serial dilutions (from 100 µM to 51,200 µM) of temporin-PKE and its analogues in a 96-well plate, and the plate was incubated in a moist shaking incubator at a speed of 200 rpm at 37 °C for 24 h. For the MBEC assay, 100 µL of bacterial suspension (5 × 10^5 CFU/mL) in each well was seeded in a new 96-well plate, and the plate was put into the same shaking incubator for 24 h incubation to allow biofilm formation on the well. After biofilm formation, the biofilm in the plate was washed with PBS twice. The PBS was aspirated between washes to remove planktonic bacterial cells. The washed biofilm in each well was treated with 100 µL of serial dilutions (from 1 µM to 512 µM) of the test peptides. Then, the plate was incubated in the same shaking incubator for another 24 h. After being washed by PBS twice and fixed with methanol, the biofilm in each well was incubated with 100 µL of 0.1% crystal violet for 30 min, and the stained biofilm was dissolved in 100 µL of glacial acidic acid after drying. The solutions were transferred to a new microplate, and the absorbance of each well was measured using a microplate reader (EL808, Biolise BioTek, Winooski, VT, USA) set to 595 nm wavelength. The MBIC was the minimum concentration of the peptide showing no biofilm formation. The MBEC is the lowest concentration of the peptide capable of eradicating the mature biofilms, which had no biofilm in the well.

Assay [2] has as its system K. pneumoniae (ATCC 43816). In kind it is cell-based, Klebsiella pneumoniae. As to conditions: ATCC 43816, 24 h. As to the method:
(§1) The antimicrobial activities of peptides were evaluated against the Gram-positive bacteria, S. aureus (ATCC 6538), methicillin-resistant Staphylococcus aureus (MRSA) (NCTC 12493), Enterococcus faecalis (E. faecalis) (NCTC 12697); the Gram-negative bacteria, E. coli (ATCC CRM 8739), Klebsiella pneumoniae (K. pneumoniae) (ATCC 43816), Pseudomonas aeruginosa (P. aeruginosa) (ATCC CRM 9027); and the yeast, Candida albicans (C. albicans) (ATCC CRM 10231). Clinical isolates of MRSA (B042 V2E1 A), E. coli (ATCC BAA-2340), K. pneumoniae (ATCC BAA-1705), and P. aeruginosa (B004 V2S2 B) were also used to determine their antimicrobial activities. The suspension of microorganisms in the logarithmic growth phase with a specific final density (Gram-negative and Gram-positive bacteria: 5 × 10^5 CFU/mL; yeast: 1 × 10^6 CFU/mL) was incubated with different peptide concentrations from 1 µM to 512 µM at 37 °C for 24 h. PBS was used as the negative control, and norfloxacin and amphotericin B were selected as the positive control for bacteria and yeast, respectively. Since the Norfloxacin had weak activities against P. aeruginosa (B004 V2S2 B) and K. pneumoniae (ATCC BAA 1705), gentamicin was used as the positive control for these two bacterial strains. The absorbance of each well was obtained using a microplate reader (EL808, Biolise BioTek, Winooski, VT, USA) set at 550 nm wavelength. The MIC value was the lowest concentration of a peptide that inhibits visible bacterial growth. Once the MIC values were determined, an aliquot from the bacterial culture exposed to the peptide at or above its MIC value was inoculated on a Mueller Hinton agar (MHA) and was incubated at 37 for 18 h. The MBC value was the lowest concentration of a peptide that kills 99.9% of bacteria.
According to the procedures in a previous article, the analysis of the sensitivity of the peptides was determined by measuring MIC values in the presence of different types of salts and 10% fetal bovine serum. MRSA (NCTC 12493) and K. pneumoniae (ATCC 43816) were selected as the subjects of these assays. Various salts at different concentrations, including 150 mM NaCl, 4.5 mM KCl, 6 μM NH4Cl, 1 mM MgCl2, […], […], and 10% serum (Gibco, Auckland, New Zealand), were added to the MHB medium for the examination of the MIC values which were determined as described in Section 2.7.

For a further assay, the system named is E. coli (ATCC CRM 8739). In words: microbe, parasite or virus in culture. Type of assay: cell-based, Escherichia coli. The settings on record: for MBC: ATCC CRM 8739, 18 h; for MIC: ATCC CRM 8739, 24 h. As to the method:
as §1

In the next assay the test system is E. coli (ATCC BAA-2340). The assay can be described thus: microbe, parasite or virus in culture. Type of assay: cell-based, Escherichia coli. The settings on record: for MBC: ATCC BAA-2340, 18 h; for MIC: ATCC BAA-2340, 24 h. As for the experimental part:
as §1

The subject of assay [3] is P. aeruginosa (ATCC CRM 9027). The assay can be described thus: microbe, parasite or virus in culture. In kind it is cell-based, Pseudomonas aeruginosa. As to conditions: for MBC: ATCC CRM 9027, 18 h; for MIC: ATCC CRM 9027, 24 h. As for the experimental part:
as §1

The subject of assay [4] is P. aeruginosa (B004 V2S2 B). In words: microbe, parasite or virus in culture. In kind it is cell-based, Pseudomonas aeruginosa. The settings on record: B004 V2S2 B; for MBC: 18 h; for MIC: 24 h. As for the experimental part: as §1
A further assay relates to MRSA (B042 V2E1 A). In words: microbe, parasite or virus in culture. Type of assay: cell-based, methicillin-resistant Staphylococcus aureus. As to conditions: B042 V2E1 A; for MBC: 18 h; for MIC: 24 h. As for the experimental part:
as §1

A further assay relates to MRSA (NCTC 12493). The assay can be described thus: microbe, parasite or virus in culture. The settings on record: for MBC: NCTC 12493, 18 h; for MIC: NCTC 12493, 24 h. In kind it is cell-based, methicillin-resistant Staphylococcus aureus. As for the experimental part:
as §1

On to “FLPLIIGALSSKLPKIF-NH2 [Temporin-PKE-K12]”, for which, in assay [1], the MBIC was 64 µM. In addition, in assay [2], the “MIC against K. pneumoniae in the presence of 4 µM FeCl3” value (“MIC … of 4 µM FeCl3” for short) is 32 µM, the “MIC against K. pneumoniae in the presence of 6 µM NH4Cl” value (“MIC … of 6 µM NH4Cl” below) stood at 32 µM, the “MIC against K. pneumoniae in the presence of 8 µM ZnCl2” value (shortened to “MIC … of 8 µM ZnCl2”) stood at 64 µM and the “MIC against K. pneumoniae in the presence of 1 mM MgCl2” value (“MIC … of 1 mM MgCl2” for short) worked out at 128 µM. Besides, in assay [2], the “MIC against K. pneumoniae in the presence of 2 mM CaCl2” value (“MIC … of 2 mM CaCl2” below) was 256 µM, the “MIC against K. pneumoniae in the presence of 4.5 mM KCl” value (shortened to “MIC … of 4.5 mM KCl”) amounted to 32 µM, the “MIC against K. pneumoniae in the presence of 150 mM NaCl” value (“MIC … of 150 mM NaCl” for short) was 128 µM and the “MIC against K. pneumoniae in the presence of 10% FBS” value (“MIC … of 10% FBS” for short) was found to be 128 µM. In assay [2], the “MIC against K. pneumoniae, Negative” value worked out at 32 µM. In the assay on E. coli (ATCC CRM 8739), this substance showed an MBC of 8 µM and an MIC of 8 µM. Moreover, in the assay on E. coli (ATCC BAA-2340), the MBC is 16 µM and the MIC came out at 16 µM. In assay [3], this substance had an MBC of 256 µM and an MIC of 256 µM. Besides, in assay [4], the MBC worked out at 64 µM and the MIC amounted to 64 µM. For the same substance, in the assay on MRSA (B042 V2E1 A), the MBC was 4 µM and the MIC was 4 µM. In the assay with MRSA (NCTC 12493), the MBC stood at 4 µM and the MIC came out at 4 µM.
The substance FLPLIIGALSSLLPKIF-NH2 [Temporin-PKE] displayed an MBIC in assay [1] of 32 µM. Moreover, in assay [2], the “MIC … of 4 µM FeCl3” value was greater than 512 µM. Further, in assay [2], the “MIC … of 6 µM NH4Cl” value is greater than 512 µM. For the same substance, in assay [2], the “MIC … of 8 µM ZnCl2” value is greater than 512 µM. In addition, the “MIC … of 1 mM MgCl2” value in assay [2] is greater than 512 µM. For the same substance, the “MIC … of 2 mM CaCl2” value in assay [2] is greater than 512 µM. In addition, in assay [2], the “MIC … of 4.5 mM KCl” value was greater than 512 µM. Further, the “MIC … of 150 mM NaCl” value in assay [2] was greater than 512 µM. The “MIC … of 10% FBS” value in assay [2] is greater than 512 µM. The “MIC against K. pneumoniae, Negative” value in assay [2] is greater than 512 µM. Further, the MBC in the assay on E. coli (ATCC CRM 8739) (read-out: MBC) is given as greater than 512 µM; with E. coli (ATCC BAA-2340) (read-out: MBC), greater than 512 µM; in assay [3] (read-out: MBC), greater than 512 µM; in assay [4] (read-out: MBC), greater than 512 µM; in the assay with MRSA (B042 V2E1 A) (read-out: MBC), 8 µM; in the assay with MRSA (NCTC 12493), 2/2 μM. For the same substance, the MIC was greater than 512 µM in the assay on E. coli (ATCC CRM 8739) (read-out: MIC); greater than 512 µM in the assay on E. coli (ATCC BAA-2340) (read-out: MIC); greater than 512 µM in assay [3] (read-out: MIC); greater than 512 µM in assay [4] (read-out: MIC); 4 µM in the assay with MRSA (B042 V2E1 A) (read-out: MIC); 2 µM with MRSA (NCTC 12493) (read-out: MIC).
The substance FLPLIIGKLSSLLPKIF-NH2 [Temporin-PKE-2K] returned an MBIC in assay [1] of 16 µM. In assay [2], the “MIC … of 4 µM FeCl3” value was determined as 16 µM, the “MIC … of 6 µM NH4Cl” value turned out to be 16 µM, the “MIC … of 8 µM ZnCl2” value is 16 µM and the “MIC … of 1 mM MgCl2” value was 32 µM. In assay [2], the “MIC … of 2 mM CaCl2” value was found to be 32 µM, the “MIC … of 4.5 mM KCl” value worked out at 16 µM, the “MIC … of 150 mM NaCl” value was 128 µM and the “MIC … of 10% FBS” value amounted to 64 µM. The “MIC against K. pneumoniae, Negative” value in assay [2] came to 16 µM. In addition, in the assay on E. coli (ATCC CRM 8739), the MBC is 4 µM and the MIC stood at 4 µM. In the assay on E. coli (ATCC BAA-2340), this substance gave an MBC of 8 µM and an MIC of 8 µM. The MBC in assay [3] (read-out: MBC) turned out to be 256 µM. Besides, the MIC in assay [3] (read-out: MIC) came to 128 µM. In assay [4], the MBC amounted to 32 µM and the MIC worked out at 32 µM. For the same substance, in the assay with MRSA (B042 V2E1 A), the MBC was found to be 2 µM and the MIC came out at 2 µM. In the assay on MRSA (NCTC 12493), this substance had an MBC of 2 µM and an MIC of 2 µM.
